Measured values reported in patent publication US20260158009A1 (GENZYME CORPORATION, priority 2023, published 2026).

Experiments:
U937 cells = test: Cellular assay in U937 cells: activity of RIPK1 inhibitors on TNFα/zVAD.fmk-induced cell death (necroptosis), CellTiter 96 AQueous (MTS) readout; format: cell-based; conditions: Homo sapiens, U-937
Outline: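 Necroptosis was measured by viable-cell MTS reduction (4 h, absorbance 490 nm) after overnight (18–24 h) 37° C culture. Cell suspensions of U937 cells carried TNFα (100 ng/ml) plus zVAD.fmk (50 μM) before compound was added. A 10-point curve (10 μM–0.26 nM or 1 μM–0.07 nM) was run in duplicate, normalised to the control lacking TNFα/zVAD.fmk.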

[1] = target: T1, hRIPK1 (aa 1-375) fusion protein (Homo sapiens, UniProt Q13546); test: ADP-Glo kinase assay: catalytic activity of RIPK1 (autophosphorylation, conversion of ATP to ADP); format: biochemical
T1 construct: hRIPK1 (aa 1-375) fusion protein
T1 sequence (Q13546 1-375): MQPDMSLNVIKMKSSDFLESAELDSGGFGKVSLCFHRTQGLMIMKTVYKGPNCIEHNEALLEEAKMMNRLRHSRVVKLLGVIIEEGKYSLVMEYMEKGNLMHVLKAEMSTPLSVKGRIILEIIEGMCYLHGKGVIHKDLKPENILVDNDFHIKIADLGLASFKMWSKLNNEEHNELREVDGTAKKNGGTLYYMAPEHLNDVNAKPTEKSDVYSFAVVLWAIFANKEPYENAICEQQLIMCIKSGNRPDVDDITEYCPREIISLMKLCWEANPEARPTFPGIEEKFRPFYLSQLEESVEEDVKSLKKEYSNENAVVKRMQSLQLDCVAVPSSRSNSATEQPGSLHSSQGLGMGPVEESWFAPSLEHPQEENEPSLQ
Outline: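 The readout was ADP-Glo luminescence after a 240 min rt autophosphorylation reaction with 50 μM ATP, following 30 min preincubation of 3.6 μg/ml hRIPK1 (aa 1-375) fusion with compound at 33300-1.69 nM final in 1% DMSO. Values came from Levenberg-Marquardt nonlinear fits.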

Structure (SMILES): Cc1cc2nnc(C)n2cc1C[C@H]1CC[C@H](C(=O)N2OCC[C@H]2c2ccc(F)c(F)c2)CC1 [compound 318, [(3S)-3-(3,4-difluorophenyl)isoxazolidin-2-yl]-[4-[(3,7-dimethyl-[1,2,4]triazolo[4,3-a]pyridin-6-yl)methyl]cyclohexyl]methanone]
- IC50 (U937 cells): 27 nM
- IC50 [1]: 22 nM

Structure (SMILES): Cc1cc(C[C@H]2CC[C@H](C(=O)N3OCC[C@H]3c3ccc(F)cc3)CC2)cn2c(C)nnc12 [compound 319, trans-[4-[(3,8-dimethyl-[1,2,4]triazolo[4,3-a]pyridin-6-yl)methyl]cyclohexyl]-[(3S)-3-(4-fluorophenyl)isoxazolidin-2-yl]methanone]
- IC50 (U937 cells): 33 nM
- IC50 [1]: 14 nM

Structure (SMILES): Cc1nnc2c(F)cc(C[C@H]3CC[C@H](C(=O)N4OCC[C@H]4c4ccc(F)cc4)CC3)cn12 [compound 320, trans-[4-[(8-fluoro-3-methyl-[1,2,4]triazolo[4,3-a]pyridin-6-yl)methyl]cyclohexyl]-[(3S)-3-(4-fluorophenyl)isoxazolidin-2-yl]methanone]
- IC50 (U937 cells): 28 nM
- IC50 [1]: 37 nM

Structure (SMILES): Cc1cn2ncc(C[C@H]3CC[C@H](C(=O)N4OCC[C@H]4c4cccc(C#N)c4)CC3)cc2n1 [compound 322, [2-cyano-4-[(3S)-2-[4-[(2-methylimidazo[1,2-b]pyridazin-7-yl)methyl]cyclohexanecarbonyl]isoxazolidin-3-yl]phenyl]]
- IC50 (U937 cells): 27 nM
- IC50 [1]: 37 nM

Structure (SMILES): Cc1cn2ncc(C[C@H]3CC[C@H](C(=O)N4OCC[C@H]4c4cccc(F)c4)CC3)cc2n1 [compound 323, [2-fluoro-4-[(3S)-2-[4-[(2-methylimidazo[1,2-b]pyridazin-7-yl)methyl]cyclohexanecarbonyl]isoxazolidin-3-yl]phenyl]]
- IC50 (U937 cells): 6 nM
- IC50 [1]: 10 nM

Structure (SMILES): Cc1cn2ncc(C[C@H]3CC[C@H](C(=O)N4OCC[C@H]4c4ccc(F)cc4)CC3)cc2n1 [compound 324, trans-[4-[(3S)-2-[4-[(2-methylimidazo[1,2-b]pyridazin-7-yl)methyl]cyclohexanecarbonyl]isoxazolidin-3-yl]phenyl]]
- IC50 (U937 cells): 35 nM
- IC50 [1]: 34 nM

Structure (SMILES): Cc1ccc([C@@H]2CCON2C(=O)[C@H]2CC[C@H](Cc3cc(C)c4nc(C)nn4c3)CC2)cn1 [compound 325, trans-[4-[(2,8-dimethyl-[1,2,4]triazolo[1,5-a]pyridin-6-yl)methyl]cyclohexyl]-[(3S)-3-(6-methyl-3-pyridyl)isoxazolidin-2-yl]methanone]
- IC50 (U937 cells): 108 nM
- IC50 [1]: 125 nM

Structure (SMILES): Cc1nc2c(C)cc(C[C@H]3CC[C@H](C(=O)N4OCC[C@H]4c4cnccn4)CC3)cn2n1 [compound 326, trans-[4-[(2,8-dimethyl-[1,2,4]triazolo[1,5-a]pyridin-6-yl)methyl]cyclohexyl]-[(3S)-3-pyrazin-2-ylisoxazolidin-2-yl]methanone]
- IC50 (U937 cells): 59 nM
- IC50 [1]: 51 nM

Structure (SMILES): Cc1nc2c(F)cc(C[C@H]3CC[C@H](C(=O)N4OCC[C@H]4c4cnc(C)c(F)c4)CC3)cn2n1 [compound 327, trans-[(3S)-3-(5-fluoro-6-methyl-3-pyridyl)isoxazolidin-2-yl]-[4-[(8-fluoro-2-methyl-[1,2,4]triazolo[1,5-a]pyridin-6-yl)methyl]cyclohexyl]methanone]
- IC50 (U937 cells): 48 nM
- IC50 [1]: 48 nM

Structure (SMILES): Cc1cnc([C@@H]2CCON2C(=O)[C@H]2CC[C@H](Cc3cc(C)c4nc(C)nn4c3)CC2)cn1 [compound 328, trans-[4-[(2,8-dimethyl-[1,2,4]triazolo[1,5-a]pyridin-6-yl)methyl]cyclohexyl]-[(3S)-3-(5-methylpyrazin-2-yl)isoxazolidin-2-yl]methanone; 2,2,2-trifluoroacetic]
- IC50 (U937 cells): 82 nM
- IC50 [1]: 47 nM

Structure (SMILES): Cc1ccc([C@@H]2CCON2C(=O)[C@H]2CC[C@H](Cc3cnc4cnn(C)c4c3)CC2)cn1 [compound 329, trans-[4-[(1-methylpyrazolo[4,3-b]pyridin-6-yl)methyl]cyclohexyl]-[(3S)-3-(6-methylpyridin-3-yl)-1,2-oxazolidin-2-yl]methanone]
- IC50 (U937 cells): 82 nM
- IC50 [1]: 44 nM

Structure (SMILES): Cc1nc2c(C)cc(C[C@H]3CC[C@H](C(=O)N4OCC[C@H]4c4cnc(C)c(F)c4)CC3)cn2n1 [compound 330, trans-[4-[(2,8-dimethyl-[1,2,4]triazolo[1,5-a]pyridin-6-yl)methyl]cyclohexyl]-[(3S)-3-(5-fluoro-6-methylpyridin-3-yl)-1,2-oxazolidin-2-yl]methanone]
- IC50 (U937 cells): 18 nM
- IC50 [1]: 20 nM

Structure (SMILES): Cc1nc2c(C)cc(C[C@H]3CC[C@H](C(=O)N4OCC[C@H]4c4cncc(F)c4)CC3)cn2n1 [compound 331, trans-[4-[(2,8-dimethyl-[1,2,4]triazolo[1,5-a]pyridin-6-yl)methyl]cyclohexyl]-[(3S)-3-(5-fluoropyridin-3-yl)-1,2-oxazolidin-2-yl]methanone]
- IC50 (U937 cells): 20 nM
- IC50 [1]: 15 nM

Structure (SMILES): Cc1cc(C[C@H]2CC[C@H](C(=O)N3OCC[C@H]3c3cnc(C)c(F)c3)CC2)c(C)cn1 [compound 332, trans-[4-[(2,5-dimethylpyridin-4-yl)methyl]cyclohexyl]-[(3S)-3-(5-fluoro-6-methylpyridin-3-yl)-1,2-oxazolidin-2-yl]methanone]
- IC50 (U937 cells): 3 nM
- IC50 [1]: 12 nM

Structure (SMILES): Cc1cncc([C@@H]2CCON2C(=O)[C@H]2CC[C@H](Cc3cc(F)c4nc(C)nn4c3)CC2)c1 [compound 333, trans-[4-[(8-fluoro-2-methyl-[1,2,4]triazolo[1,5-a]333yrdine-6-yl)methyl]cyclohexyl]-[(3S)-3-(5-methylpyridin-3-yl)-1,2-oxazolidin-2-yl]methanone]
- IC50 (U937 cells): 55 nM
- IC50 [1]: 30 nM

Structure (SMILES): Cc1cncc([C@@H]2CCON2C(=O)[C@H]2CC[C@H](Cc3cc(C)c4ncnn4c3)CC2)c1 [compound 334, trans-[(3S)-3-(5-methylpyridin-3-yl)-1,2-oxazolidin-2-yl]-[4-[(8-methyl-[1,2,4]triazolo[1,5-a]pyridin-6-yl)methyl]cyclohexyl]methanone]
- IC50 (U937 cells): 35 nM
- IC50 [1]: 20 nM

Structure (SMILES): Cc1ncc([C@@H]2CCON2C(=O)[C@H]2CC[C@H](Cc3cc(C)c4ncnn4c3)CC2)cc1F [compound 335, trans-[(3S)-3-(5-fluoro-6-methylpyridin-3-yl)-1,2-oxazolidin-2-yl]-[4-[(8-methyl-[1,2,4]triazolo[1,5-a]pyridin-6-yl)methyl]cyclohexyl]methanone]
- IC50 (U937 cells): 11 nM
- IC50 [1]: 27 nM

Structure (SMILES): Cc1cc(C[C@H]2CC[C@H](C(=O)N3OCC[C@H]3c3cncc(F)c3)CC2)cn2ncnc12 [compound 336, trans-[(3S)-3-(5-fluoropyridin-3-yl)-1,2-oxazolidin-2-yl]-[4-[(8-methyl-[1,2,4]triazolo[1,5-a]pyridin-6-yl)methyl]cyclohexyl]methanone]
- IC50 (U937 cells): 10 nM
- IC50 [1]: 17 nM

Structure (SMILES): Cc1ncc([C@@H]2CCON2C(=O)[C@H]2CC[C@H](Cc3ccc4ncnn4c3)CC2)cc1F [compound 337, trans-[(3S)-3-(5-fluoro-6-methylpyridin-3-yl)-1,2-oxazolidin-2-yl]-[4-([1,2,4]triazolo[1,5-a]pyridin-6-ylmethyl)cyclohexyl]methanone]
- IC50 (U937 cells): 31 nM
- IC50 [1]: 26 nM

Structure (SMILES): O=C([C@H]1CC[C@H](Cc2ccc3ncnn3c2)CC1)N1OCC[C@H]1c1cncc(F)c1 [compound 338, trans-[(3S)-3-(5-fluoropyridin-3-yl)-1,2-oxazolidin-2-yl]-[4-([1,2,4]triazolo[1,5-a]pyridin-6-ylmethyl)cyclohexyl]methanone]
- IC50 (U937 cells): 45 nM
- IC50 [1]: 29 nM

Structure (SMILES): Cc1cnc([C@@H]2CCON2C(=O)[C@H]2CC[C@H](Cc3cc(C)ncc3C)CC2)cn1 [compound 339, trans-[4-[(2,5-dimethylpyridin-4-yl)methyl]cyclohexyl]-[(3S)-3-(5-methylpyrazin-2-yl)-1,2-oxazolidin-2-yl]methanone]
- IC50 (U937 cells): 16 nM
- IC50 [1]: 25 nM

Structure (SMILES): Cc1nc2c(F)cc(C[C@H]3CC[C@H](C(=O)N4OCC[C@H]4c4cnccn4)CC3)cn2n1 [compound 340, trans-[4-[(8-fluoro-2-methyl-[1,2,4]triazolo[1,5-a]pyridin-6-yl)methyl]cyclohexyl]-[(3S)-3-pyrazin-2-yl-1,2-oxazolidin-2-yl]methanone]
- IC50 (U937 cells): 77 nM
- IC50 [1]: 25 nM

Structure (SMILES): Cc1ccc([C@@H]2CCON2C(=O)[C@H]2CC[C@H](Cc3cc(F)c4nc(C)nn4c3)CC2)cn1 [compound 341, trans-[4-[(8-fluoro-2-methyl-[1,2,4]triazolo[1,5-a]pyridin-6-yl)methyl]cyclohexyl]-[(3S)-3-(6-methylpyridin-3-yl)-1,2-oxazolidin-2-yl]methanone]
- IC50 (U937 cells): 114 nM
- IC50 [1]: 81 nM

Structure (SMILES): COc1cc(C[C@H]2CC[C@H](C(=O)N3OCC[C@H]3c3cnc(C)c(F)c3)CC2)cn2nc(C)nc12 [compound 342, trans-[(3S)-3-(5-fluoro-6-methylpyridin-3-yl)-1,2-oxazolidin-2-yl]-[4-[(8-methoxy-2-methyl-[1,2,4]triazolo[1,5-a]pyridin-6-yl)methyl]cyclohexyl]methanone]
- IC50 (U937 cells): 8 nM
- IC50 [1]: 26 nM
